Each structure is given as a SMILES string.

Tested on in one data set: not listed separately
As to the kind of experiment: Plasma half-life in 2 weeks-old chickens. In kind it is ADME, organism-based, Gallus gallus. Conditions: chicken.
Broadly, the half-life is the time in which the quantity being followed falls by half. Low values mean rapid decline, high ones slow decline. The compound `Cc1cc(-n2ncc(=O)[nH]c2=O)ccc1S(=O)(=O)c1ccc(Cl)cc1` showed a half-life of 10 h.

`O=c1cnn(-c2ccc(S(=O)(=O)c3ccc(Br)cc3)cc2)c(=O)[nH]1` showed a half-life of 19 h.

Tested on in the next data set: not listed separately
Briefly: Plasma half-life in 6-8 weeks old broiler chickens. In kind it is ADME, organism-based, Gallus gallus. Conditions: chicken.
Turning to `Cc1cc(-n2ncc(=O)[nH]c2=O)cc(C)c1Sc1ccc(Cl)cc1` [TIAZURIL], the half-life is 16 h.

For `Cc1cc(-n2ncc(=O)[nH]c2=O)ccc1S(=O)(=O)c1ccc(Cl)cc1`, the half-life was 14.5 h.

In turn, `O=c1cnn(-c2cc(Cl)c(Sc3ccc(Cl)cc3)c(Cl)c2)c(=O)[nH]1` showed a half-life of 47 h. This half-life is about 3.2-fold higher than that of the compound before.

Take `O=c1cnn(-c2ccc(Sc3ccc(Cl)cc3)c(Cl)c2)c(=O)[nH]1`: the half-life is 38 h.

The compound `Cc1cc(-n2ncc(=O)[nH]c2=O)cc(Cl)c1S(=O)(=O)c1ccc(Cl)cc1` gave a half-life of 26 h. This half-life and that of the compound before are within 1.5-fold of each other.

Another data set has as its system Eimeria tenella. As to the kind of experiment: Minimum effective concentration in feed to protect chickens against infections caused by Eimeria tenella. In kind it is functional.
Conditions: not given
The compound `O=c1cnn(-c2cc(Cl)c(S(=O)(=O)c3ccc(Cl)cc3)c(Cl)c2)c(=O)[nH]1` returned an MEC of 0.5 p.p.m.

With `O=c1cnn(-c2ccc(S(=O)(=O)c3ccc([N+](=O)[O-])cc3)cc2)c(=O)[nH]1`, the MEC is on record as >250 p.p.m.

Turning to `Cc1cc(-n2ncc(=O)[nH]c2=O)cc(C)c1Sc1ccc(Cl)cc1` [TIAZURIL], the MEC was found to be 0.5 p.p.m.

The compound `Cc1cc(-n2ncc(=O)[nH]c2=O)ccc1S(=O)(=O)c1ccc(Cl)cc1` showed an MEC of 2 p.p.m.

With `O=c1cnn(-c2cc(Cl)c(Sc3ccccc3)c(Cl)c2)c(=O)[nH]1`, the MEC came to 8 p.p.m.

In turn, `O=c1cnn(-c2ccc(S(=O)(=O)c3ccc(Cl)cc3)c(Cl)c2)c(=O)[nH]1` displayed an MEC of 2 p.p.m.

The compound `O=c1cnn(-c2cc(Cl)c(Sc3ccc(Cl)cc3)c(Cl)c2)c(=O)[nH]1` gave an MEC of 0.25 p.p.m.

With `O=c1cnn(-c2ccc(S(=O)(=O)c3ccc(Cl)cc3)cc2)c(=O)[nH]1`, the MEC is given as 4 p.p.m.

Compound `O=c1cnn(-c2ccc(Sc3ccc(Cl)cc3)c(Cl)c2)c(=O)[nH]1` returned an MEC of 2 p.p.m.

`O=c1cnn(-c2ccc(S(=O)(=O)Cc3ccc(Cl)cc3)cc2)c(=O)[nH]1` gave an MEC of 250 p.p.m.

Turning to `Cc1cc(-n2ncc(=O)[nH]c2=O)cc(C)c1S(=O)(=O)c1ccc(Cl)cc1`, the MEC amounted to 1 p.p.m.

For the compound `O=c1cnn(-c2ccc(Sc3ccc([N+](=O)[O-])cc3)cc2)c(=O)[nH]1`, the MEC is 30 p.p.m.

As to `CCc1cc(-n2ncc(=O)[nH]c2=O)cc(C)c1Sc1ccc(Cl)cc1`, the MEC worked out at 60 p.p.m.

In the case of `Cc1ccccc1S(=O)(=O)c1ccc(-n2ncc(=O)[nH]c2=O)cc1`, the MEC is listed as >125 p.p.m.

As to `O=c1cnn(-c2ccc(Sc3ccc(Cl)cc3)c([N+](=O)[O-])c2)c(=O)[nH]1`, the MEC is 60 p.p.m.

For the compound `O=c1cnn(-c2ccc(Sc3ccc(Cl)cc3)cc2)c(=O)[nH]1`, the MEC is on record as 4 p.p.m.

Compound `O=c1cnn(-c2ccc(S(=O)(=O)c3ccccc3)cc2)c(=O)[nH]1` returned an MEC of 30 p.p.m.

Compound `Cc1cc(-n2ncc(=O)[nH]c2=O)cc(Cl)c1S(=O)(=O)c1ccc(Cl)cc1` showed an MEC of 15 p.p.m.

As for `Cc1ccc(S(=O)(=O)c2ccc(-n3ncc(=O)[nH]c3=O)cc2)cc1`, the MEC is on record as 250 p.p.m.

In the case of `Cc1cc(-n2ncc(=O)[nH]c2=O)cc(C)c1Sc1ccc(I)cc1`, the MEC came out at 15 p.p.m.

`CSc1c(Cl)cc(-n2ncc(=O)[nH]c2=O)cc1Cl` came in with an MEC of 30 p.p.m.

Turning to `CC(C)(C)c1ccc(S(=O)(=O)c2ccc(-n3ncc(=O)[nH]c3=O)cc2)cc1`, the MEC is >250 p.p.m.

On to `CC(C)(C)c1ccc(Sc2ccc(-n3ncc(=O)[nH]c3=O)cc2Cl)cc1`, for which the MEC is on record as >60 p.p.m.

For `COc1cc(-n2ncc(=O)[nH]c2=O)ccc1S(=O)(=O)c1ccc(Cl)cc1`, the MEC is recorded as >125 p.p.m.

As for `C[S+]([O-])c1c(Cl)cc(-n2ncc(=O)[nH]c2=O)cc1Cl` (stereo not given), the MEC is >125 p.p.m.

Regarding `CC(c1ccccc1)S(=O)(=O)c1ccc(-n2ncc(=O)[nH]c2=O)cc1` (stereo not given), the MEC was >125 p.p.m.

In turn, `Cc1cc(-n2ncc(=O)[nH]c2=O)ccc1Sc1ccc(Cl)cc1` had an MEC of 2 p.p.m.

Consider `O=c1cnn(-c2ccc(S(=O)(=O)Cc3ccccc3)cc2)c(=O)[nH]1`, for which the MEC is >125 p.p.m.

`Cc1cc(-n2ncc(=O)[nH]c2=O)ccc1[S+]([O-])c1ccc(Cl)cc1` (stereo not given) showed an MEC of 4 p.p.m.

Take `CS(=O)(=O)c1c(Cl)cc(-n2ncc(=O)[nH]c2=O)cc1Cl`: the MEC is >125 p.p.m.

As for `O=c1cnn(-c2ccc(Sc3ccc(Br)cc3)c(Cl)c2)c(=O)[nH]1`, the MEC was 2 p.p.m.

`O=c1cnn(-c2ccc(S(=O)(=O)c3ccc(Br)cc3)cc2)c(=O)[nH]1` showed an MEC of 8 p.p.m.

`O=c1cnn(-c2ccc(Sc3ccc4ccccc4c3)c(Cl)c2)c(=O)[nH]1`: the MEC was 125 p.p.m.

Regarding `Cc1cc(-n2ncc(=O)[nH]c2=O)cc(C)c1[S+]([O-])c1ccc(Cl)cc1` (stereo not given), the MEC was determined as 1 p.p.m.

On to `Cc1cc(-n2ncc(=O)[nH]c2=O)cc(Cl)c1Sc1ccc(Cl)cc1`, for which the MEC is recorded as 0.25 p.p.m.

With `Cc1cc(-n2ncc(=O)[nH]c2=O)ccc1S(=O)(=O)c1ccc(Br)cc1`, the MEC is on record as 15 p.p.m.

On to `O=c1cnn(-c2cc(Br)c(Sc3ccc([N+](=O)[O-])cc3)c(Br)c2)c(=O)[nH]1`, for which the MEC came to 8 p.p.m.

As for `O=c1cnn(-c2cc(Cl)c(Sc3ccc(S(=O)(=O)N4CCOCC4)cc3)c(Cl)c2)c(=O)[nH]1`, the MEC is >60 p.p.m.

Values taken from ChEMBL document CHEMBL1121746, “Anticoccidial derivatives of 6-azauracil. 4. A 1000-fold enhancement of potency by phenyl sulfide and phenyl sulfone side chains” (J Med Chem, 1981).
